This passage reports IC50 results from patent US9540379B2 (priority 2011, dated 2017).

For the experiment, the target named is PDE10A (Homo sapiens (Human), UniProt Q9Y233). The settings on record: read-out: Inhibition of PDE10A, IC50.
PDE10A, sequence (Q9Y233 other isoform, or with tags, fused parts or gaps): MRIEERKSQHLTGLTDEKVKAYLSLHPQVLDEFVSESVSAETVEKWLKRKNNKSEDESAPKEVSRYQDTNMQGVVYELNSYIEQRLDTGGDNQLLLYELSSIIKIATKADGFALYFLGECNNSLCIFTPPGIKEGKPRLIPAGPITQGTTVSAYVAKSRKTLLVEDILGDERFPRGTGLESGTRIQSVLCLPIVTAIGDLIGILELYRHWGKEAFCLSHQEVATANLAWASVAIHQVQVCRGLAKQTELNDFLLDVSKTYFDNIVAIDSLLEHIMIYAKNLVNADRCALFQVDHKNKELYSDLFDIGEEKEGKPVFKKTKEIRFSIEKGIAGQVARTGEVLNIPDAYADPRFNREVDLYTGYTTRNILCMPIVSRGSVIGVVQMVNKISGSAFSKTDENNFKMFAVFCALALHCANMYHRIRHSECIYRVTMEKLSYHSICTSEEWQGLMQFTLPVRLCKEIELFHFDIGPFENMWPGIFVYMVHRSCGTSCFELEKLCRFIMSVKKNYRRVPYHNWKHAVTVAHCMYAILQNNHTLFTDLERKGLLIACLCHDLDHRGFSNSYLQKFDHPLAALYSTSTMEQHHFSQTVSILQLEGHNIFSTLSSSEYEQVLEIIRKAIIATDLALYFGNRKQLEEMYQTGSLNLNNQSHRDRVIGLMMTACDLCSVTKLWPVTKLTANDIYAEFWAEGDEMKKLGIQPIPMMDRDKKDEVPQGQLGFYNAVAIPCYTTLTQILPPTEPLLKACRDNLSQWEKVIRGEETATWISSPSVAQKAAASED
Method: Inhibition of Recombinant PDE10A (Expressed in Baculovirus/SF21 Cells)
PDE activity was determined in a one step procedure in microtiter plates. The reaction mixture of 100 μl contained 50 mM Tris-HCl/5 mM MgCl2 buffer (pH=7.4, Sigma, Deisenhofen, Germany; Merck, Darmstadt, Germany) 0.1 μM [3H]-cAMP (PerkinElmer, Shelton, USA) and the enzyme. Non-specific enzyme activity was determined without the enzyme.
The reaction was initiated by addition of the substrate solution and was carried out at 37° C. for 30 minutes. Enzymatic activity then was stopped by addition of 25 μl Ysi-SPA-beads (PerkinElmer, Shelton, USA). One h later the mixture was measured in a liquid scintillation counter for microtiter plates (Microbeta Trilux). The Biomek 2000 (Beckman) was used routinely for pipetting of the incubation mixture. […] For determination of IC50 values the Hill-plot, 2-parameter-model, was used.
Turning to `Cc1nc2ccc(Cl)cc2n2c(-c3ccccc3Cl)nnc12` [Example 1, 8-Chloro-1-(2-chloro-phenyl)-4-methyl-[1,2,4]triazolo[4,3-a]quinoxaline], the IC50 – broadly, the midpoint of a concentration-inhibition curve – was 0.045 µM.
For `Cc1nc2ccc(Cl)cc2n2c(-c3ccccc3F)nnc12` [Example 2, 8-Chloro-1-(2-fluoro-phenyl)-4-methyl-[1,2,4]triazolo[4,3-a]quinoxaline], the IC50 came to 0.214 µM.
As to `Cc1ncccc1-c1nnc2c(C)nc3ccc(Cl)cc3n12` [Example 5, 8-Chloro-4-methyl-1-(2-methyl-pyridin-3-yl)-[1,2,4]triazolo[4,3-a]quinoxaline], the IC50 was determined as 0.383 µM.
In the case of `Cc1nc2ccc(Cl)cc2n2c(-c3cc(Cl)ccc3Cl)nnc12` [Example 6, 8-Chloro-1-(2,5-dichloro-phenyl)-4-methyl-[1,2,4]triazolo[4,3-a]quinoxaline], the concentration for half-maximal inhibition (IC50) is 0.131 µM.
With `COc1ccc(Cl)c(-c2nnc3c(C)nc4ccc(Cl)cc4n23)c1` [Example 7, 8-Chloro-1-(2-chloro-5-methoxy-phenyl)-4-methyl-[1,2,4]triazolo[4,3-a]quinoxaline], the IC50 is 0.104 µM.
Consider `Cc1cnccc1-c1nnc2c(C)nc3ccc(Cl)cc3n12` [Example 9, 8-Chloro-4-methyl-1-(3-methyl-pyridin-4-yl)-[1,2,4]triazolo[4,3-a]quinoxaline], for which the IC50 amounted to 0.736 µM.
Take `Cc1nc2ccc(Cl)cc2n2c(-c3cc(C(F)(F)F)ccc3Cl)nnc12` [Example 10, 8-Chloro-1-(2-chloro-5-trifluoromethyl-phenyl)-4-methyl-[1,2,4]triazolo[4,3-a]quinoxaline]: the IC50 is over 1 µM.
Consider `CCCCOc1ccc(F)c(-c2nnc3c(C)nc4ccc(Cl)cc4n23)c1` [Example 11, 1-(5-Butoxy-2-fluoro-phenyl)-8-chloro-4-methyl-[1,2,4]triazolo[4,3-a]quinoxaline], for which the IC50 is over 1 µM.
For `CCCCOc1ccc(Cl)c(-c2nnc3c(C)nc4ccc(Cl)cc4n23)c1` [Example 12, 1-(5-Butoxy-2-chloro-phenyl)-8-chloro-4-methyl-[1,2,4]triazolo[4,3-a]quinoxaline], the IC50 is over 1 µM.
Take `CCCCCCOc1ccc(C)c(-c2nnc3c(C)nc4ccc(Cl)cc4n23)c1` [Example 15, 8-Chloro-1-(5-hexyloxy-2-methyl-phenyl)-4-methyl-[1,2,4]triazolo[4,3-a]quinoxaline]: the 50% inhibitory concentration (IC50) was over 1 µM.
As for `Cc1nc2ccc(Cl)cc2n2c(-c3cc(OCCCC(F)(F)F)ccc3Cl)nnc12` [Example 16, 8-Chloro-1-[2-chloro-5-(4,4,4-trifluoro-butoxy)-phenyl]-4-methyl-[1,2,4]triazolo[4,3-a]quinoxaline], the IC50 is over 1 µM.
The value for `Cc1nc2ccc(Cl)cc2n2c(-c3cc(OCCCCF)ccc3F)nnc12` [Example 17, 8-Chloro-1-[2-fluoro-5-(4-fluoro-butoxy)-phenyl]-4-methyl-[1,2,4]triazolo[4,3-a]quinoxaline] was over 1 µM.
As to `Cc1nc2cc(Cl)ccc2n2c(-c3c(F)cccc3F)nnc12` [Example 18, 7-Chloro-1-(2,6-difluoro-phenyl)-4-methyl-[1,2,4]triazolo[4,3-a]quinoxaline], the IC50 is 0.103 µM.
The result for `Cc1nc2cc(Cl)ccc2n2c(-c3cc(Cl)ccc3Cl)nnc12` [Example 19, 7-Chloro-1-(2,5-dichloro-phenyl)-4-methyl-[1,2,4]triazolo[4,3-a]quinoxaline] reads over 1 µM; that for `Cc1nc2cc(Cl)ccc2n2c(-c3cc(C(F)(F)F)ccc3Cl)nnc12` [Example 21, 7-Chloro-1-(2-chloro-5-trifluoromethyl-phenyl)-4-methyl-[1,2,4]triazolo[4,3-a]quinoxaline], over 1 µM; that for `CCCCOc1ccc(F)c(-c2nnc3c(C)nc4cc(Cl)ccc4n23)c1` [Example 22, 1-(5-Butoxy-2-fluoro-phenyl)-7-chloro-4-methyl-[1,2,4]triazolo[4,3-a]quinoxaline], over 1 µM.
As for `CCCCOc1ccc(Cl)c(-c2nnc3c(C)nc4cc(Cl)ccc4n23)c1` [Example 23, 1-(5-Butoxy-2-chloro-phenyl)-7-chloro-4-methyl-[1,2,4]triazolo[4,3-a]quinoxaline], the IC50 was over 1 µM.
The result for `CCCCCCOc1ccc(F)c(-c2nnc3c(C)nc4cc(Cl)ccc4n23)c1` [Example 24, 7-Chloro-1-(2-fluoro-5-hexyloxy-phenyl)-4-methyl-[1,2,4]triazolo[4,3-a]quinoxaline] reads over 1 µM; that for `CCCCOc1ccc(C)c(-c2nnc3c(C)nc4cc(Cl)ccc4n23)c1` [Example 25, 1-(5-Butoxy-2-methyl-phenyl)-7-chloro-4-methyl-[1,2,4]triazolo[4,3-a]quinoxaline], over 1 µM.
`CCCCCCOc1ccc(C)c(-c2nnc3c(C)nc4cc(Cl)ccc4n23)c1` [Example 26, 7-Chloro-1-(5-hexyloxy-2-methyl-phenyl)-4-methyl-[1,2,4]triazolo[4,3-a]quinoxaline]: the IC50 is over 1 µM.
For `Cc1nc2ccccc2n2c(-c3ccccc3F)nnc12` [Example 30, 1-(2-Fluoro-phenyl)-4-methyl-[1,2,4]triazolo[4,3-a]quinoxaline], the IC50 came to 0.346 µM.
Take `Cc1nc2ccccc2n2c(-c3cc(Cl)ccc3Cl)nnc12` [Example 34, 1-(2,5-Dichloro-phenyl)-4-methyl-[1,2,4]triazolo[4,3-a]quinoxaline]: the IC50 is 0.33 µM.
With `Cc1nc2ccccc2n2c(-c3cccc(Cl)c3Cl)nnc12` [Example 35, 1-(2,3-Dichloro-phenyl)-4-methyl-[1,2,4]triazolo[4,3-a]quinoxaline], the IC50 came out at 0.36 µM.
For `Cc1nc2ccccc2n2c(-c3cc(OCC4CCC4)ccc3Cl)nnc12` [Example 47, 1-(2-Chloro-5-cyclobutylmethoxy-phenyl)-4-methyl-[1,2,4]triazolo[4,3-a]quinoxaline], the IC50 is over 1 µM.
For the molecule `Cc1nc2ccccc2n2c(-c3cc(OCC4CC4)ccc3Cl)nnc12` [Example 48, 1-(2-Chloro-5-cyclopropylmethoxy-phenyl)-4-methyl-[1,2,4]triazolo[4,3-a]quinoxaline], the IC50 is over 1 µM.
With `Cc1nc2ccccc2n2c(-c3cc(OCCc4ccccc4)ccc3Cl)nnc12` [Example 49, 1-(2-Chloro-5-phenethyloxy-phenyl)-4-methyl-[1,2,4]triazolo[4,3-a]quinoxaline], the IC50 was over 1 µM.
For the molecule `Cc1nc2ccccc2n2c(-c3cc(O)ccc3Cl)nnc12` [Example 50, 4-Chloro-3-(4-methyl-[1,2,4]triazolo[4,3-a]quinoxalin-1-yl)-phenol], the IC50 stood at 0.062 µM.
For `Cc1nc2ccc(F)cc2n2c(-c3ccccc3F)nnc12` [Example 52, 8-Fluoro-1-(2-fluoro-phenyl)-4-methyl-[1,2,4]triazolo[4,3-a]quinoxaline], the IC50 turned out to be 0.553 µM.
Consider `Cc1ncccc1-c1nnc2c(C)nc3ccc(F)cc3n12` [Example 53, 8-Fluoro-4-methyl-1-(2-methyl-pyridin-3-yl)-[1,2,4]triazolo[4,3-a]quinoxaline], for which the IC50 amounted to 1 µM.
`COc1ccc(Cl)c(-c2nnc3c(C)nc4ccc(F)cc4n23)c1` [Example 56, 1-(2-Chloro-5-methoxy-phenyl)-8-fluoro-4-methyl-[1,2,4]triazolo[4,3-a]quinoxaline]: the IC50 came to 0.279 µM.
Take `Cc1nc2ccc(F)cc2n2c(-c3cc(C(F)(F)F)ccc3Cl)nnc12` [Example 57, 1-(2-Chloro-5-trifluoromethyl-phenyl)-8-fluoro-4-methyl-[1,2,4]triazolo[4,3-a]quinoxaline]: the IC50 was over 1 µM.
For `CCCCOc1ccc(F)c(-c2nnc3c(C)nc4ccc(F)cc4n23)c1` [Example 58, 1-(5-Butoxy-2-fluoro-phenyl)-8-fluoro-4-methyl-[1,2,4]triazolo[4,3-a]quinoxaline], the IC50 is over 1 µM.
`CCCCOc1ccc(Cl)c(-c2nnc3c(C)nc4ccc(F)cc4n23)c1` [Example 59, 1-(5-Butoxy-2-chloro-phenyl)-8-fluoro-4-methyl-[1,2,4]triazolo[4,3-a]quinoxaline]: the IC50 was over 1 µM.
For `CCCCCCOc1ccc(F)c(-c2nnc3c(C)nc4ccc(F)cc4n23)c1` [Example 60, 8-Fluoro-1-(2-fluoro-5-hexyloxy-phenyl)-4-methyl-[1,2,4]triazolo[4,3-a]quinoxaline], the IC50 is over 1 µM.
Take `COc1ccccc1-c1nnc2c(C)nc3ccc(C(F)(F)F)cc3n12` [Example 63, 1-(2-Methoxy-phenyl)-4-methyl-8-trifluoromethyl-[1,2,4]triazolo[4,3-a]quinoxaline]: the IC50 is 0.265 µM.
With `Cc1nc2ccc(C(F)(F)F)cc2n2c(-c3cccc(Cl)c3Cl)nnc12` [Example 64, 1-(2,3-Dichloro-phenyl)-4-methyl-8-trifluoromethyl-[1,2,4]triazolo[4,3-a]quinoxaline], the IC50 came out at 0.337 µM.
`Cc1nc2ccc(C(F)(F)F)cc2n2c(-c3cc(C(F)(F)F)ccc3Cl)nnc12` [Example 65, 1-(2-Chloro-5-trifluoromethyl-phenyl)-4-methyl-8-trifluoromethyl-[1,2,4]triazolo[4,3-a]quinoxaline]: the 50% inhibitory concentration (IC50) was over 1 µM.
Turning to `Cc1nc2ccc(C(F)(F)F)cc2n2c(-c3ccccc3F)nnc12` [Example 66, 1-(2-Fluorophenyl)-4-methyl-8-trifluoromethyl-[1,2,4]triazolo[4,3-a]quinoxaline], the IC50 was determined as 0.471 µM.
As to `CCCCOc1ccc(F)c(-c2nnc3c(C)nc4ccc(C(F)(F)F)cc4n23)c1` [Example 67, 1-(5-Butoxy-2-fluoro-phenyl)-4-methyl-8-trifluoromethyl-[1,2,4]triazolo[4,3-a]quinoxaline], the IC50 was over 1 µM.
Turning to `CCCCCCOc1ccc(F)c(-c2nnc3c(C)nc4ccc(C(F)(F)F)cc4n23)c1` [Example 68, 1-(2-Fluoro-5-hexyloxy-phenyl)-4-methyl-8-trifluoromethyl-[1,2,4]triazolo[4,3-a]quinoxaline], the IC50 was over 1 µM.
Turning to `COc1ccc2c(c1)nc(C)c1nnc(-c3ccccc3F)n12` [Example 73, 1-(2-Fluoro-phenyl)-7-methoxy-4-methyl-[1,2,4]triazolo[4,3-a]quinoxaline], the IC50 stood at 0.223 µM.
With `COc1ccc2c(c1)nc(C)c1nnc(-c3ccccc3Cl)n12` [Example 74, 1-(2-Chloro-phenyl)-7-methoxy-4-methyl-[1,2,4]triazolo[4,3-a]quinoxaline], the IC50 worked out at 0.068 µM.
